Source: paper PMC6130543, “Immunomodulatory activities of isolated compounds from the root-bark of Cussonia arborea” (Pharmaceutical Biology, 2017)
Converted amounts (≈) assume the structure as drawn. Where two headings read alike, the source gives them in different places.

Tests used:
[1] = tested on: phytoheamagglutinin (PHA) activated T-cells; assay: 3H-Thymidine incorporated T-cell proliferation assay; type: cell-based, human; settings: for inhibition of T-cell proliferation (in words): PHA activated T-cells, 1-100 µg/mL; for IC50: read-out: T-cell proliferation inhibition (IC50± SD µg/mL)
Procedure: Lymphocytes were isolated from human heparinized blood. Briefly 10 mL of blood was aseptically collected in heparin containing tube from healthy volunteer. Blood was then mixed with equal volume (1:1) of incomplete RPMI (Roswell Park Memorial Institute) media in 50 mL sterile falcon tube. Lymphocyte separation media (LSM) (5 mL) was added into two sterile 15 mL falcon tubes and 10 mL of the mixture containing blood and RPMI was gently layered on LSM in each tube. Tubes were then centrifuged at 400 g for 20 min at room temperature. The buffy layer appeared at the interface of LSM and plasma was carefully collected and washed at 4 °C for 10 min at 300 g. The supernatant was discarded and pellet containing peripheral blood mononuclear cells (PBMNCs) was collected. Cell viability and counting was performed using trypan blue dye. ^3H-Thymidine incorporated T-cell proliferation assay was performed as described by […] et al. ([2009]). […] After that 50 μL of isolated PBMNCs were added at a concentration of (2 × 10^6 cell/mL). Cells were then stimulated by adding 50 μL of 7.5 μg/mL […]) which acts as mitogen only for T-cells among other PBMNCs. […] The wells received 50 μL cells and 150 μL of 5% FCS/RPMI served as negative control where as positive control contains 50 μL cells, 50 μL of PHA-L and 100 μL of 5% FCS/RPMI. […] Plates were then incubated for 72 h at 37 °C in 5% CO2 incubator. After 72 h, cultures were pulsed with 25 μL of 0.5 μCi/well ^3H-thymidine [Hartmann Analytic, Braunschweig, Germany], and plates were further incubated for 18 h. After incubation cells were harvested using a glass fibre filter and cell harvester [Inotech, Dottikon, Switzerland]. The level of the ^3H-thymidine incorporated into the cells was measured by a LS65000 liquid scintillation counter [Beckman coulter, Fullerton, CA, USA]. Results were expressed as mean count per minutes (CPM). The 50% inhibitory concentration (IC50) values were calculated for all tested compounds.

[2] = MTT cytotoxicity assay; type: cell-based; settings: mouse
Procedure: (§1) Cytotoxicity of test compounds on NIH-3T3 fibroblast cells (ATCC, Manassas, VA, USA) was evaluated by using the standard MTT colorimetric assay. Briefly 100 μL of 5 × 10^4 cells/mL in Dulbacco’s modified eagles medium (DMEM) supplemented with 10% foetal bovine serum (FBS) were plated into 96-wells flat bottom plate and incubated overnight at 37 °C in 5% CO2. Three different concentrations of test compound (1, 10 and 100 µg/mL) were added to the plate in triplicates and incubated for 48 h. 0.5 mg/mL MTT (50 µL) was added to each well, the plate was then further incubated for 4 h. MTT was aspirated and 100 µL of dimethyl sulfoxide (DMSO) was then added to each well. The extent of MTT reduction to formazan within cells was calculated by measuring the absorbance at 540 nm, using spectrophotometer (Spectra Max plus, Molecular Devices, CA, USA). The cytotoxic activity was recorded as concentration causing 50% growth inhibition (IC50) for 3T3 cells. Cycloheximide was used as standard drug.

[3] = tested on: serum opsonized zymosan activated whole blood phagocytes (intracellular ROS production); assay: Oxidative burst assay (luminol-enhanced chemiluminescence); type: cell-based, human; settings: for IC50: read-out: ROS inhibition (IC50± SD µg/mL); for inhibition of production of ROS (in words): zymosan activated whole blood phagocytes, 1-100 µg/mL
[4] = tested on: NIH-3T3 fibroblast cells; assay: MTT cytotoxicity assay; type: cell-based; settings: MTT, 48 h; three doses (1, 10 and 100 µg/mL); mean ± SD of three determinations
Procedure: as §1

[5] = tested on: whole blood lymphocyte proliferation; parameters: method as in Magee et al. [2002]; settings: similar work; ref Magee et al. [2002]; cited from earlier work
[6] = T-cell, PHA-L activated human T-cells, 72 h + 18 h 3H-thymidine, three doses (1, 10 and 100 µg/mL), mean ± SD of three determinations
[7] = zymosan activated human whole blood phagocytes, luminol probe, three doses (1, 10 and 100 µg/mL), mean ± SD of three determinations
[8] = MTT, 48 h, three doses (1, 10 and 100 µg/mL), mean ± SD of three determinations, read-out: Cytotoxicity on NIH 3T3-cells (IC50± SD µg/mL)

Q: Which results are given for `CC1(C)CC[C@]2(C(=O)O)CC[C@]3(C)C(=CC[C@@H]4[C@@]5(C)CC[C@H](O)[C@@](C)(CO)[C@@H]5CC[C@]43C)[C@@H]2C1` [Compound 1, 3, 23-dihydroxy-12-oleanen-28-oic acid]?
A: inhibition of T-cell proliferation (in words) [1]: no inhibition; IC50 [1, 6]: > 100 µg/mL; IC50 at 48 h [2]: > 100 µg/mL; IC50 [3, 7]: 24.4 ± 4.3 µg/mL

Q: What does the source list for `CC1(C)CC[C@]2(C(=O)O)CC[C@]3(C)C(=CC[C@@H]4[C@@]5(C)CC[C@H](O)C(C)(C)[C@@H]5CC[C@]43C)[C@@H]2C1` [Compound 2, 3β-hydroxylolean-12-en-28-oic]?
A: IC50 [1, 6]: 12.6 ± 0.4 µg/mL; IC50 at 48 h ([2]; NIH-3T3 fibroblast cells, MTT, 48 h, three doses (1, 10 and 100 µg/mL), mean ± SD of three determinations, read-out: Cytotoxicity on NIH 3T3-cells (IC50± SD µg/mL)): > 100 µg/mL; IC50 [3, 7]: 37.5 ± 0.1 µg/mL

Q: What does the source list for `CC[C@H](/C=C/[C@@H](C)[C@H]1CC[C@H]2[C@@H]3CC=C4C[C@@H](O)CC[C@]4(C)[C@H]3CC[C@]12C)C(C)C` [Compound 3, stigmasterol]?
A: IC50 [2, 8]: > 100 µg/mL; IC50 [3, 7]: > 100 µg/mL; inhibition of production of ROS (in words) [3]: did not inhibit

Q: With `CC[C@H](/C=C/[C@@H](C)[C@H]1CC[C@H]2[C@@H]3CC=C4C[C@@H](O[C@@H]5O[C@H](CO)[C@@H](O)[C@H](O)[C@H]5O)CC[C@]4(C)[C@H]3CC[C@]12C)C(C)C` [Compound 4, 3-O-β-D-glucopyranosyl stigmasterol] as the compound, how does the “inhibition of T-cell proliferation (in words)” value [1] read?
A: no inhibition

Q: What about the “T-cell proliferation inhibition (IC50± SD µg/mL)” value ([1]; PHA-L activated human T-cells, 72 h + 18 h 3H-thymidine, three doses (1, 10 and 100 µg/mL), mean ± SD of three determinations) of the same compound?
A: >100 µg/mL

Q: What about the “Cytotoxicity on NIH 3T3-cells (IC50± SD µg/mL)” value [4] of the same compound?
A: >100 µg/mL

Q: What about the “ROS inhibition (IC50± SD µg/mL)” value [3, 7] of the same compound?
A: >100 µg/mL

Q: And the “inhibition of production of ROS (in words)” value [3]?
A: did not inhibit

Q: For `C[C@@H]1C[C@@H]([C@H](O)CC2CC(=O)NC(=O)C2)C(=O)[C@@H](C)C1` [Cyclohexamide, Cycloheximide, reference compound], which IC50 at 48 h [2, 8] is on record?
A: 0.13 ± 0.02 µg/mL (≈ 0.462 µM)

Q: Which IC50 [3, 7] does the source give for `CC(C)Cc1ccc(C(C)C(=O)O)cc1` (centres unmarked) [Ibuprofen, reference compound] here?
A: 11.2 ± 1.9 µg/mL

Q: Which results are given for `C[C@]12C=CC(=O)C=C1CC[C@@H]1[C@@H]2[C@@H](O)C[C@@]2(C)[C@H]1CC[C@]2(O)C(=O)CO` [Prednisolone, prednisolone, reference compound]?
A: IC50 of prednisolone (lymphocyte proliferation) [5]: 0.0388 mg/L; inhibition at 0.62 µg/mL ([1]; Homo sapiens, T-cell, at lowest tested concentration (0.62 µg/mL), PHA activator): 64.3 ± 2%; IC50 [1, 6]: < 0.62 µg/mL
